Reference: PubChem BioAssay (NCI)
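Test compounds were applied to cells in 96-well plates for 48 hours at 5 doses. Here, GI50 denotes the concentration required for 50% inhibition of growth. The concentration for full growth arrest is given as TGI.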

Assays:
Test in all cases: NCI anticancer screen, dose series, 48 h
NCI/ADR-RES ovarian = tested on: NCI/ADR-RES ovarian
SW-620 colon = tested on: SW-620 colon
CCRF-CEM leukemia = tested on: CCRF-CEM leukemia
U251 CNS = tested on: U251 CNS
SN12C renal = tested on: SN12C renal
LOX IMVI melanoma = tested on: LOX IMVI melanoma
SK-OV-3 ovarian = tested on: SK-OV-3 ovarian
M14 melanoma = tested on: M14 melanoma
CAKI-1 renal = tested on: CAKI-1 renal
MDA-MB-231 breast = tested on: MDA-MB-231 breast
BT-549 breast = tested on: BT-549 breast
COLO 205 colon = tested on: COLO 205 colon
MOLT-4 leukemia = tested on: MOLT-4 leukemia
MDA-MB-435 = tested on: MDA-MB-435
T-47D breast = tested on: T-47D breast
HCT-116 colon = tested on: HCT-116 colon
SK-MEL-2 melanoma = tested on: SK-MEL-2 melanoma
SK-MEL-5 melanoma = tested on: SK-MEL-5 melanoma
OVCAR-3 ovarian = tested on: OVCAR-3 ovarian
DU-145 prostate = tested on: DU-145 prostate
ACHN renal = tested on: ACHN renal
786-0 renal = tested on: 786-0 renal
OVCAR-8 ovarian = tested on: OVCAR-8 ovarian
SF-539 CNS = tested on: SF-539 CNS
A549 NSCLC = tested on: A549 NSCLC
RXF 393 renal = tested on: RXF 393 renal
NCI-H460 lung = tested on: NCI-H460 lung
NCI-H23 lung = tested on: NCI-H23 lung
HCC-2998 colon = tested on: HCC-2998 colon
HT29 colon = tested on: HT29 colon
MALME-3M melanoma = tested on: MALME-3M melanoma
HCT-15 colon = tested on: HCT-15 colon
HOP-92 NSCLC = tested on: HOP-92 NSCLC
SF-295 CNS = tested on: SF-295 CNS
A498 renal = tested on: A498 renal
IGROV1 ovarian = tested on: IGROV1 ovarian
UACC-62 melanoma = tested on: UACC-62 melanoma
HOP-62 NSCLC = tested on: HOP-62 NSCLC
SNB-75 CNS = tested on: SNB-75 CNS
UO-31 renal = tested on: UO-31 renal
NCI-H226 lung = tested on: NCI-H226 lung
TK-10 renal = tested on: TK-10 renal
HL-60(TB) leukemia = tested on: HL-60(TB) leukemia
K-562 leukemia = tested on: K-562 leukemia
PC-3 prostate = tested on: PC-3 prostate
KM12 colon = tested on: KM12 colon
SK-MEL-28 melanoma = tested on: SK-MEL-28 melanoma
SF-268 CNS = tested on: SF-268 CNS
OVCAR-5 ovarian = tested on: OVCAR-5 ovarian
NCI-H522 lung = tested on: NCI-H522 lung
SNB-19 CNS = tested on: SNB-19 CNS
UACC-257 melanoma = tested on: UACC-257 melanoma
MCF7 breast = tested on: MCF7 breast
HS 578T breast = tested on: HS 578T breast
SR leukemia = tested on: SR leukemia

In the case of `CCC(=O)Oc1cc(/C=C/C(=O)O[C@H]2C[C@H]3CN4CCc5c([nH]c6cc(OC)ccc56)[C@@H]4C[C@@H]3[C@@H](C(=O)OC)[C@@H]2OC)ccc1OC`, the GI50 (NCI/ADR-RES ovarian) is reported as 20.5 µM, the TGI (NCI/ADR-RES ovarian) is reported as > 100 µM and the GI50 (SW-620 colon) is reported as 15.9 µM. The TGI (SW-620 colon) was > 100 µM, the GI50 (CCRF-CEM leukemia) was 3.75 µM and the TGI (CCRF-CEM leukemia) was > 100 µM. The GI50 (U251 CNS) was 9.67 µM, the TGI (U251 CNS) was 88.1 µM and the GI50 (SN12C renal) was 12 µM. For the same compound, the TGI (SN12C renal) was > 100 µM, the GI50 (LOX IMVI melanoma) was 13.1 µM and the TGI (LOX IMVI melanoma) was 55.1 µM. The GI50 (SK-OV-3 ovarian) was 59 µM, the TGI (SK-OV-3 ovarian) was > 100 µM and the GI50 (M14 melanoma) was 13.1 µM. The TGI (M14 melanoma) was > 100 µM, the GI50 (CAKI-1 renal) was 3.22 µM and the TGI (CAKI-1 renal) was > 100 µM. The GI50 (MDA-MB-231 breast) was 5 µM, the TGI (MDA-MB-231 breast) was 28.4 µM and the GI50 (BT-549 breast) was 7.53 µM. For the same compound, the TGI (BT-549 breast) was 62.4 µM, the GI50 (COLO 205 colon) was 4.57 µM and the TGI (COLO 205 colon) was 17.7 µM. For the same compound, the GI50 (MOLT-4 leukemia) was 3.87 µM, the TGI (MOLT-4 leukemia) was > 100 µM and the GI50 (MDA-MB-435) was 12 µM. For the same compound, the TGI (MDA-MB-435) was 29.2 µM, the GI50 (T-47D breast) was 10.8 µM and the TGI (T-47D breast) was 41.2 µM. The GI50 (HCT-116 colon) was 9.11 µM, the TGI (HCT-116 colon) was 78.9 µM and the GI50 (SK-MEL-2 melanoma) was 17.6 µM. For the same compound, the TGI (SK-MEL-2 melanoma) was 36.6 µM, the GI50 (SK-MEL-5 melanoma) was 13 µM and the TGI (SK-MEL-5 melanoma) was 28.5 µM. The GI50 (OVCAR-3 ovarian) was 7.3 µM, the TGI (OVCAR-3 ovarian) was 67.5 µM and the GI50 (DU-145 prostate) was 18 µM. For the same compound, the TGI (DU-145 prostate) was > 100 µM, the GI50 (ACHN renal) was 5.34 µM and the TGI (ACHN renal) was > 100 µM. The GI50 (786-0 renal) was 7.26 µM, the TGI (786-0 renal) was > 100 µM and the GI50 (OVCAR-8 ovarian) was 19.7 µM. The TGI (OVCAR-8 ovarian) was > 100 µM, the GI50 (SF-539 CNS) was 12.3 µM and the TGI (SF-539 CNS) was 30.9 µM. For the same compound, the GI50 (A549 NSCLC) was 21.6 µM, the TGI (A549 NSCLC) was > 100 µM and the GI50 (RXF 393 renal) was 3.68 µM. The TGI (RXF 393 renal) was 17.4 µM, the GI50 (NCI-H460 lung) was 28.6 µM and the TGI (NCI-H460 lung) was > 100 µM. The GI50 (NCI-H23 lung) was 20.5 µM, the TGI (NCI-H23 lung) was > 100 µM and the GI50 (HCC-2998 colon) was 47.1 µM. The TGI (HCC-2998 colon) was > 100 µM, the GI50 (HT29 colon) was 3.37 µM and the TGI (HT29 colon) was 11.9 µM. It also gave a GI50 (MALME-3M melanoma) of 6.75 µM, a TGI (MALME-3M melanoma) of 29 µM and a GI50 (HCT-15 colon) of 5.7 µM. For the same compound, the TGI (HCT-15 colon) was 23.8 µM, the GI50 (HOP-92 NSCLC) was 1.58 µM and the TGI (HOP-92 NSCLC) was 11.5 µM. The GI50 (SF-295 CNS) was 31 µM, the TGI (SF-295 CNS) was > 100 µM and the GI50 (A498 renal) was 1.94 µM. The TGI (A498 renal) was 9.9 µM, the GI50 (IGROV1 ovarian) was 14.1 µM and the TGI (IGROV1 ovarian) was 75.8 µM. For the same compound, the GI50 (UACC-62 melanoma) was 12.1 µM, the TGI (UACC-62 melanoma) was 29.5 µM and the GI50 (HOP-62 NSCLC) was 25.2 µM. The TGI (HOP-62 NSCLC) was > 100 µM, the GI50 (SNB-75 CNS) was 3.74 µM and the TGI (SNB-75 CNS) was 26.8 µM. The GI50 (UO-31 renal) was 4.82 µM, the TGI (UO-31 renal) was > 100 µM and the GI50 (NCI-H226 lung) was 11.8 µM. For the same compound, the TGI (NCI-H226 lung) was > 100 µM, the GI50 (TK-10 renal) was 14 µM and the TGI (TK-10 renal) was 45.1 µM. The GI50 (HL-60(TB) leukemia) was 3.7 µM, the TGI (HL-60(TB) leukemia) was 26.9 µM and the GI50 (K-562 leukemia) was 4.06 µM. For the same compound, the TGI (K-562 leukemia) was > 100 µM, the GI50 (PC-3 prostate) was 15 µM and the TGI (PC-3 prostate) was > 100 µM. For the same compound, the GI50 (KM12 colon) was 18.7 µM, the TGI (KM12 colon) was > 100 µM and the GI50 (SK-MEL-28 melanoma) was 13.6 µM. The TGI (SK-MEL-28 melanoma) was 35.2 µM, the GI50 (SF-268 CNS) was 14.1 µM and the TGI (SF-268 CNS) was > 100 µM. For the same compound, the GI50 (OVCAR-5 ovarian) was 40.4 µM, the TGI (OVCAR-5 ovarian) was > 100 µM and the GI50 (NCI-H522 lung) was 16.2 µM. The TGI (NCI-H522 lung) was 33.6 µM, the GI50 (SNB-19 CNS) was 22.4 µM and the TGI (SNB-19 CNS) was > 100 µM. The GI50 (UACC-257 melanoma) was 15 µM, the TGI (UACC-257 melanoma) was > 100 µM and the GI50 (MCF7 breast) was 5.16 µM. For the same compound, the TGI (MCF7 breast) was 24.3 µM, the GI50 (HS 578T breast) was 5.3 µM and the TGI (HS 578T breast) was > 100 µM. For the same compound, the GI50 (SR leukemia) was 2.27 µM and the TGI (SR leukemia) was > 100 µM.
